Results on 14 molecules are retold here after ChEMBL document CHEMBL1156251, “Structure--activity relationships of polymyxin antibiotics” (J Med Chem, 2010).

≈ marks a conversion by molar mass, not a printed value. Where a SMILES comes first, the peptide text is derived from it. Bridges are numbered along the chain shown (N, C = ends). [ ]: non-standard residue; d: D form. The star is where a group is joined. Heptanoyl(6-Me) = CC(C)CCCCC(=O)*; Heptanoyl = CCCCCCC(=O)*; Dab = NCC[C@H](N)C(=O)O

In one assay the test system is Escherichia coli. In words: Antimicrobial activity against Escherichia coli. Format: functional.
The target of the next assay is Lipopolysaccharide (LPS). In words: Displacement of dansyl-PMB from LPS by isothermal titration calorimetry.
In a further assay the test system is Pseudomonas aeruginosa. As to the kind of experiment: Antimicrobial activity against Pseudomonas aeruginosa. Format: functional, organism-based.
Another assay deals with Salmonella enterica. In words: Antimicrobial activity against Salmonella enterica. The format is functional.

For the molecule `CC(C)C[C@@H]1NC(=O)[C@@H](Cc2ccccc2)NC(=O)[C@H](CCN)NC(=O)[C@@H](NC(=O)[C@H](CCN)NC(=O)[C@@H](NC(=O)[C@H](C)NC(=O)O)[C@@H](C)O)CCNC(=O)[C@H]([C@@H](C)O)NC(=O)[C@H](CCN)NC(=O)[C@H](CCN)NC1=O` [DESFA-[ALA1]POLYMYXIN B], the MIC in the assay on Escherichia coli turned out to be 32 µM (≈ 34.5 µg/mL); against Pseudomonas aeruginosa it was 32 µM (≈ 34.5 µg/mL); against Salmonella enterica it was 64 µM (≈ 69 µg/mL). For the same molecule, the IC50 entry on Lipopolysaccharide (LPS) is on record as “>= 32 nmol/ml”.
In the case of `CC(C)C[C@@H]1NC(=O)[C@@H](Cc2ccccc2)NC(=O)[C@H](CCN)NC(=O)[C@@H](NC(=O)[C@H](CCN)NC(=O)[C@@H](NC(=O)[C@H](C)NC(=O)[C@@H](C)NC(=O)[C@H](C)N)[C@@H](C)O)CCNC(=O)[C@H]([C@@H](C)O)NC(=O)[C@H](CCN)NC(=O)[C@H](CCN)NC1=O` [DESFA-[ALA-ALA-ALA1]POLYMYXIN B], the MIC in the assay on Escherichia coli stood at 64 µM (≈ 75.3 µg/mL); against Pseudomonas aeruginosa, 128 µM (≈ 151 µg/mL); against Salmonella enterica, 128 µM (≈ 151 µg/mL). Further, the IC50 result on Lipopolysaccharide (LPS) is on record as “>= 32 nmol/ml”.
Regarding `CC(C)C[C@@H]1NC(=O)[C@@H](Cc2ccccc2)NC(=O)[C@H](CCN)NC(=O)[C@@H](NC(=O)[C@H](CCN)NC(=O)[C@@H](NC(=O)[C@H](CCCNC(=N)N)NC(=O)O)[C@@H](C)O)CCNC(=O)[C@H]([C@@H](C)O)NC(=O)[C@H](CCN)NC(=O)[C@H](CCN)NC1=O` [DESFA-[ARG1]POLYMYXIN B], the MIC against Escherichia coli stood at 8 µM (≈ 9.31 µg/mL); against Pseudomonas aeruginosa, 16 µM (≈ 18.6 µg/mL); with Salmonella enterica, 16 µM (≈ 18.6 µg/mL). The IC50 at Lipopolysaccharide (LPS) amounted to 15 µM.
Turning to `CC(C)C[C@@H]1NC(=O)[C@@H](Cc2ccccc2)NC(=O)[C@H](CCN)NC(=O)[C@@H](NC(=O)[C@H](CCN)NC(=O)[C@@H](NC(=O)[C@H](CCCNC(=N)N)NC(=O)[C@@H](CCCNC(=N)N)NC(=O)[C@@H](N)CCCNC(=N)N)[C@@H](C)O)CCNC(=O)[C@H]([C@@H](C)O)NC(=O)[C@H](CCN)NC(=O)[C@H](CCN)NC1=O` [DESFA-[ARG-ARG-ARG1]POLYMYXIN B], the MIC was 16 µM (≈ 22.9 µg/mL) in the assay with Escherichia coli, 1 µM (≈ 1.43 µg/mL) with Pseudomonas aeruginosa and 64 µM (≈ 91.6 µg/mL) against Salmonella enterica. This molecule also had an IC50 at Lipopolysaccharide (LPS) of 3 µM.
Taken in the same sequence, the figures for `CC(C)C[C@@H]1NC(=O)[C@@H](Cc2ccccc2)NC(=O)[C@H](CCN)NC(=O)[C@@H](NC(=O)[C@H](CCN)NC(=O)[C@@H](NC(=O)[C@H](CCN)NC(=O)O)[C@@H](C)O)CCNC(=O)[C@H]([C@@H](C)O)NC(=O)[C@H](CCN)NC(=O)[C@H](CCN)NC1=O` [DESFA-[DAB1]POLYMYXIN B] were 8 µM (≈ 8.86 µg/mL), 4 µM (≈ 4.43 µg/mL), 16 µM (≈ 17.7 µg/mL) and 19 µM.
On to `CC(C)C[C@@H]1NC(=O)[C@@H](Cc2ccccc2)NC(=O)[C@H](CCN)NC(=O)[C@@H](NC(=O)[C@H](CCN)NC(=O)[C@@H](NC(=O)[C@H](CCN)NC(=O)[C@@H](CCN)NC(=O)[C@@H](N)CCN)[C@@H](C)O)CCNC(=O)[C@H]([C@@H](C)O)NC(=O)[C@H](CCN)NC(=O)[C@H](CCN)NC1=O` [DESFA-[DAB-DAB-DAB1]POLYMYXIN B], for which the MIC amounted to 8 µM (≈ 10.1 µg/mL) in the assay on Escherichia coli, 0.5 µM (≈ 0.632 µg/mL) in the assay with Pseudomonas aeruginosa and 32 µM (≈ 40.4 µg/mL) in the assay with Salmonella enterica. The same molecule came in with an IC50 at Lipopolysaccharide (LPS) of 3 µM.
In the same order, the values of `CC(C)C[C@@H]1NC(=O)[C@@H](Cc2ccccc2)NC(=O)[C@H](CCN)NC(=O)[C@@H](NC(=O)[C@H](CCN)NC(=O)[C@@H](NC(=O)[C@H](CCC(=O)O)NC(=O)O)[C@@H](C)O)CCNC(=O)[C@H]([C@@H](C)O)NC(=O)[C@H](CCN)NC(=O)[C@H](CCN)NC1=O` [DESFA-[GLU1]POLYMYXIN B] are at least 256 µM, 256 µM (≈ 291 µg/mL), over 256 µM and “>= 32 nmol/ml”.
In the same order, the values of `CC(C)C[C@H](NC(=O)O)C(=O)N[C@H](C(=O)N[C@@H](CCN)C(=O)N[C@H]1CCNC(=O)[C@H]([C@@H](C)O)NC(=O)[C@H](CCN)NC(=O)[C@H](CCN)NC(=O)[C@H](CC(C)C)NC(=O)[C@@H](Cc2ccccc2)NC(=O)[C@H](CCN)NC1=O)[C@@H](C)O` [DESFA-[LEU1]POLYMYXIN B] are 16 µM (≈ 17.9 µg/mL), 64 µM (≈ 71.7 µg/mL), 32 µM (≈ 35.9 µg/mL) and “>= 32 nmol/ml”.
In the same order, the values of `CC(C)C[C@@H]1NC(=O)[C@@H](Cc2ccccc2)NC(=O)[C@H](CCN)NC(=O)[C@@H](NC(=O)[C@H](CCN)NC(=O)[C@@H](NC(=O)[C@H](CCCCN)NC(=O)O)[C@@H](C)O)CCNC(=O)[C@H]([C@@H](C)O)NC(=O)[C@H](CCN)NC(=O)[C@H](CCN)NC1=O` [DESFA-[LYS1]POLYMYXIN B] are 16 µM (≈ 18.2 µg/mL), 32 µM (≈ 36.3 µg/mL), 32 µM (≈ 36.3 µg/mL) and 22 µM.
As to `CC(C)C[C@@H]1NC(=O)[C@@H](Cc2ccccc2)NC(=O)[C@H](CCN)NC(=O)[C@@H](NC(=O)[C@H](CCN)NC(=O)[C@@H](NC(=O)[C@H](Cc2ccccc2)NC(=O)O)[C@@H](C)O)CCNC(=O)[C@H]([C@@H](C)O)NC(=O)[C@H](CCN)NC(=O)[C@H](CCN)NC1=O` [DESFA-[PHE1]POLYMYXIN B], the values for the MIC in the assay on Escherichia coli, with Pseudomonas aeruginosa and against Salmonella enterica were 8 µM (≈ 9.23 µg/mL), 16 µM (≈ 18.5 µg/mL) and 8 µM (≈ 9.23 µg/mL), respectively. In addition, the IC50 result at Lipopolysaccharide (LPS) was “>= 32 nmol/ml”.
As to `CC(C)C[C@@H]1NC(=O)[C@@H](Cc2ccccc2)NC(=O)[C@H](CCN)NC(=O)[C@@H](NC(=O)[C@H](CCN)NC(=O)[C@@H](NC(=O)[C@H](CO)NC(=O)O)[C@@H](C)O)CCNC(=O)[C@H]([C@@H](C)O)NC(=O)[C@H](CCN)NC(=O)[C@H](CCN)NC1=O` [DESFA-[SER1]POLYMYXIN B], the MIC in the assay on Escherichia coli was 64 µM (≈ 70 µg/mL); in the assay with Pseudomonas aeruginosa, 1 µM (≈ 1.09 µg/mL); against Salmonella enterica, 64 µM (≈ 70 µg/mL). Further, the IC50 result at Lipopolysaccharide (LPS) is given as “>= 32 nmol/ml”.
On to `CC(C)CCCCC(=O)N[C@@H](CCN)C(=O)N[C@H](C(=O)N[C@@H](CCN)C(=O)N[C@H]1CCNC(=O)[C@H]([C@@H](C)O)NC(=O)[C@H](CCN)NC(=O)[C@H](CCN)NC(=O)[C@H](CC(C)C)NC(=O)[C@@H](Cc2ccccc2)NC(=O)[C@H](CCN)NC1=O)[C@@H](C)O` [POLYMYXIN B2] ({Heptanoyl(6-Me)}-[Dab]T[Dab][Dab][Dab][dF]L[Dab][Dab]T; lactam 4-C), for which the MIC against Escherichia coli, against Pseudomonas aeruginosa and against Salmonella enterica was 1 µM (≈ 1.19 µg/mL) in each case. The molecule further had an IC50 on Lipopolysaccharide (LPS) of 9 µM.
Turning to `CCCCCCCC(=O)N[C@@H](CCN)C(=O)N[C@H](C(=O)N[C@@H](CCN)C(=O)N[C@H]1CCNC(=O)[C@@H]([C@@H](C)O)NC(=O)[C@H](CCN)NC(=O)[C@H](CCN)NC(=O)[C@H](CC(C)C)NC(=O)[C@@H](Cc2ccccc2)NC(=O)[C@H](CCN)NC1=O)[C@@H](C)O` [POLYMYXIN B3], the values for the MIC against Escherichia coli, with Pseudomonas aeruginosa and in the assay with Salmonella enterica were 0.5 µM (≈ 0.595 µg/mL), 1 µM (≈ 1.19 µg/mL) and 0.5 µM (≈ 0.595 µg/mL), respectively. The same molecule yielded an IC50 on Lipopolysaccharide (LPS) of 8 µM.
For `CCCCCCC(=O)N[C@@H](CCN)C(=O)N[C@H](C(=O)N[C@@H](CCN)C(=O)N[C@H]1CCNC(=O)[C@H]([C@@H](C)O)NC(=O)[C@H](CCN)NC(=O)[C@H](CCN)NC(=O)[C@H](CC(C)C)NC(=O)[C@@H](Cc2ccccc2)NC(=O)[C@H](CCN)NC1=O)[C@@H](C)O` [POLYMYXIN B4] (Heptanoyl-[Dab]T[Dab][Dab][Dab][dF]L[Dab][Dab]T; lactam 4-C), the MIC in the assay with Escherichia coli, in the assay with Pseudomonas aeruginosa and in the assay with Salmonella enterica was 0.5 µM (≈ 0.588 µg/mL) throughout. On Lipopolysaccharide (LPS), this molecule returned an IC50 of 10 µM.
